ChEMBL document CHEMBL1201862, “PubChem BioAssay data set” (2004)
Calls of active or inactive are those of the source.

Columns and labels:
INS1 = experiment: beta cell apoptosis inhibitors, cytokine rescue, dose response, luminescence, retest (AID 449756); format: functional, cell-based; conditions: Rattus norvegicus;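 note: cell death triggered by IL-1 beta plus TNF-alpha plus IFN-gamma mixture; protective hits raise ATP signal compared with cytokine alone wells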
[1] = Shn3 3'UTR reporter inhibitors, dose response, cell-based, Clone20 osteoblasts, firefly luciferase, cherry-picked (AID 624132); format: functional;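 note: firefly luciferase luminescence from reporter carrying the Shn3 3'UTR in osteoblasts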
[2] = HepG2 cell cytotoxicity, dose response, cytotoxicity control for Shn3 inhibitor project, CellTiter-Glo, cherry-picked (AID 624134); format: functional, cell-based
[3] = control 3'UTR Renilla luciferase suppression, dose response, counter-screen for Shn3 inhibitor project, cell-based, Clone20-Shn3RL, cherry-picked (AID 624133); format: functional
[4] = target: T1, RNA-binding protein pos-1 (Caenorhabditis elegans, UniProt G5EF15); experiment: inhibitors of POS-1/mex-3 RNA binding, dose response, biochemical, fluorescence polarization (AID 1964);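 note: purified POS-1 fused to maltose binding protein made in E. coli; potency of compounds blocking POS-1 binding to fluorescent RNA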
T1 sequence (G5EF15 whole entry): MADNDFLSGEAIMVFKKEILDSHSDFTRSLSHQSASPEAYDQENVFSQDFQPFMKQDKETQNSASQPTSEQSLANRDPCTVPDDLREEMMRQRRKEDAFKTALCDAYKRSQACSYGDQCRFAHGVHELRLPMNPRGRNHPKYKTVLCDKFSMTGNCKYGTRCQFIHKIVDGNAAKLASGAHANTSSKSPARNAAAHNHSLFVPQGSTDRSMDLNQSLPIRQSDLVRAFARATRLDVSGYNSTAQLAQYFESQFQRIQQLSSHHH

[5] = target: T2, Zinc finger protein mex-5 (Caenorhabditis elegans, UniProt Q9XUB2); experiment: MEX-5/TCR-2 RNA interaction inhibitors, dose response, biochemical, C. elegans, fluorescence polarization (AID 1960)
T2 sequence (Q9XUB2 whole entry): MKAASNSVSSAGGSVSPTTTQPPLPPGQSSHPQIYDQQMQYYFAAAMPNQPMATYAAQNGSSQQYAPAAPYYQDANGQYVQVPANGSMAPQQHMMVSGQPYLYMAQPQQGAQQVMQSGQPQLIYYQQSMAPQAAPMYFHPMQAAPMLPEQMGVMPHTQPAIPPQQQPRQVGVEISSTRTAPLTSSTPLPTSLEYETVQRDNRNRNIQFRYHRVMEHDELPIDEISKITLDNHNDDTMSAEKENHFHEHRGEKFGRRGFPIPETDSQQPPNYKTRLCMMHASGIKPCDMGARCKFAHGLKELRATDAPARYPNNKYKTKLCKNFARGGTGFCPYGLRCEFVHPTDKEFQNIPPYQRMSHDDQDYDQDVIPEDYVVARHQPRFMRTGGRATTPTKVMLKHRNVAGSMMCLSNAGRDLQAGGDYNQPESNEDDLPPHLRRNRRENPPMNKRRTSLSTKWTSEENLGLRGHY

Paired box protein Pax-8 = Paired box protein Pax-8 (Homo sapiens, UniProt Q06710); experiment: inhibitors of PAX8-driven TPO luciferase reporter, dose response, RMG-I cells, cherry-pick (AID 687027); format: functional, cell-based;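 note: luciferase reporter driven by Pax8 target thyroperoxidase promoter measured by SteadyGlo luminescence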
Cytochrome P450 2C9 [6] = target: T3, Cytochrome P450 2C9 (Homo sapiens, UniProt P11712)
T3 sequence (P11712 whole entry): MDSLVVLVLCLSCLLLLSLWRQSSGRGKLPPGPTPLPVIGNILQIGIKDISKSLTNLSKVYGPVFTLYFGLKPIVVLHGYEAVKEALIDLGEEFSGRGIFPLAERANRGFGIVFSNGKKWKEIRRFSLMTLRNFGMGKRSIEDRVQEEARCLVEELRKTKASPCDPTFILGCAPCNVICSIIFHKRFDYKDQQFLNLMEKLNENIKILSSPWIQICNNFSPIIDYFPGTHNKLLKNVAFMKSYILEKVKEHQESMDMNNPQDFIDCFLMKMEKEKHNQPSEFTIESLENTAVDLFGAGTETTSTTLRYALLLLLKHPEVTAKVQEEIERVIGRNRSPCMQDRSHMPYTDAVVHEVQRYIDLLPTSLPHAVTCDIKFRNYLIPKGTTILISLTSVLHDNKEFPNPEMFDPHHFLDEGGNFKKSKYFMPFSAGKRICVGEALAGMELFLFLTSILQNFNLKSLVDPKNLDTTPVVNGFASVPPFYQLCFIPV

HEK293 [7] = experiment: cells; conditions: Homo sapiens
HEK293 [8] = experiment: cells; conditions: Homo sapiens; remark: listed apart in the source
[9] = target: Mitogen-activated protein kinase 10 (Homo sapiens, UniProt P53779); experiment: Dose response biochemical screening assay for inhibitors of c-Jun N-Terminal Kinase 3 (JNK3). [Related pubchem assays: 746 ]
Mitogen-activated protein kinase 10, sequence (P53779 whole entry): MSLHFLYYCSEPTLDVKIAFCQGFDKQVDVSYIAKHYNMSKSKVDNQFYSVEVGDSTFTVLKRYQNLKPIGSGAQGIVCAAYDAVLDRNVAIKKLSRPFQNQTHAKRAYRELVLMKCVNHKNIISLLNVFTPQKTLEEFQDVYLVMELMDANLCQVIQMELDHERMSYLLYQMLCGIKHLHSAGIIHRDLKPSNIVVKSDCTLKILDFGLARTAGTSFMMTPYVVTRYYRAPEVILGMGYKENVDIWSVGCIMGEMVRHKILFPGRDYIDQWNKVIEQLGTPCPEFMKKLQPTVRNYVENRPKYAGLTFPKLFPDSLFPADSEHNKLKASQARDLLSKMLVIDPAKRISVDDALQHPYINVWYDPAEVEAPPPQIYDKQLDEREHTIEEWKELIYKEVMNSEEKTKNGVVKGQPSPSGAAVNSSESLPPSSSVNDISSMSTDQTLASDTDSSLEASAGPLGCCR

[10] = target: FAD-linked sulfhydryl oxidase ALR (Homo sapiens, UniProt P55789); experiment: inhibitors of human ALR sulfhydryl oxidase, dose response, biochemical, H2O2 detection, luminescence, cherry-pick (AID 493248)
FAD-linked sulfhydryl oxidase ALR, sequence (P55789 whole entry): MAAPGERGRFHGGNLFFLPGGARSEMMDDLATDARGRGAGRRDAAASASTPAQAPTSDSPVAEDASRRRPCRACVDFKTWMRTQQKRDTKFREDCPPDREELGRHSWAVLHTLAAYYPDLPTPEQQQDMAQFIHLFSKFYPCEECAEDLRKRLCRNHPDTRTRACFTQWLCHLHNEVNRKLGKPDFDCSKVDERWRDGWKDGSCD

HEK293 [11] = experiment: inhibitors of LMP1-driven NF-kB reporter, dose response, cell-based, HEK293, luciferase, cherry-pick (AID 588343); format: functional; conditions: Homo sapiens
[12] = target: Dual specificity tyrosine-phosphorylation-regulated kinase 1A (Rattus norvegicus, UniProt Q63470); format: biochemical, Homo sapiens
Hexokinase HKDC1 = target: T4, Hexokinase HKDC1 (Homo sapiens, UniProt Q2TB90); experiment: HKDC1 hexokinase inhibitors, dose response, biochemical, W721R variant (AID 504729); format: functional
T4 sequence (Q2TB90 whole entry): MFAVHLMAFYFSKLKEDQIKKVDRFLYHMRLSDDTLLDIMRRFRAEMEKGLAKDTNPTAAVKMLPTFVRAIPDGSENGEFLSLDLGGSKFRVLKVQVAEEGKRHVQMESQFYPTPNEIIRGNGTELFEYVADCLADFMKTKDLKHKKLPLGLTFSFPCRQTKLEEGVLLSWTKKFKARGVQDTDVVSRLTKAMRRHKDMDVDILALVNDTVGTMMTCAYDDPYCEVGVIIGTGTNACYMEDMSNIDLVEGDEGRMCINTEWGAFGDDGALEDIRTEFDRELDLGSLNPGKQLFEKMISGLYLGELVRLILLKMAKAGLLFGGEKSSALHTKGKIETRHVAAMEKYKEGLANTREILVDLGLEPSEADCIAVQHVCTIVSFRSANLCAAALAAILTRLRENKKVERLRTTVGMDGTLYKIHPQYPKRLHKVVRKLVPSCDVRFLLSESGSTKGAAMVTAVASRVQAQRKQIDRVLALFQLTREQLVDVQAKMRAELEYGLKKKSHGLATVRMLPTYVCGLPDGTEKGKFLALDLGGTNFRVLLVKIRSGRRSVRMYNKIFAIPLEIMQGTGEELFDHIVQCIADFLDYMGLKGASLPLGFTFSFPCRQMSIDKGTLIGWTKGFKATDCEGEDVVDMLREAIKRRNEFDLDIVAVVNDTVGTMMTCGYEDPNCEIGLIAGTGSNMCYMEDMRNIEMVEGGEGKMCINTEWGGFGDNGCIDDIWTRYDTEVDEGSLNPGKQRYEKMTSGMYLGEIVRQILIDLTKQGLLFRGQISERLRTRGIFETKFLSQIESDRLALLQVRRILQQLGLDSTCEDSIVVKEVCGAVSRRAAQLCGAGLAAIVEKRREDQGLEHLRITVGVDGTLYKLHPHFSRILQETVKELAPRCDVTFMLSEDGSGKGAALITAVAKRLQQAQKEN

Cytochrome P450 2C19 = Cytochrome P450 2C19 (Homo sapiens, UniProt P33261); experiment: Cytochrome panel assay with activity outcomes. Panel member name: p450-cyp2c19 Compounds with AC50 equal or less than 10 uM are considered active; format: functional; conditions: read-out: AC50
Cytochrome P450 2C19, sequence (P33261 whole entry): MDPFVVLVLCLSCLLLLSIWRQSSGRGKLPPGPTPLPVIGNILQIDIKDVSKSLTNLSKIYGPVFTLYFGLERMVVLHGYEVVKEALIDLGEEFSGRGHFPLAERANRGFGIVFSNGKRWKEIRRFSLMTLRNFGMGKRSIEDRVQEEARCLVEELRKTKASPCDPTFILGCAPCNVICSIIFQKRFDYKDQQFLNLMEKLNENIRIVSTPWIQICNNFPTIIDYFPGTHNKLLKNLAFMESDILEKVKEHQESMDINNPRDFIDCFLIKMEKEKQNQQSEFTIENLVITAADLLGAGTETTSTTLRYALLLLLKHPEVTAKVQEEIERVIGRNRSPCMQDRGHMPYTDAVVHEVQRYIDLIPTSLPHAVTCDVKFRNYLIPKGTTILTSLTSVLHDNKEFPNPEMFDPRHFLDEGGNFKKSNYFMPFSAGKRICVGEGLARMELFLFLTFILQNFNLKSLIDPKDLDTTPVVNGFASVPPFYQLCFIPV

Cytochrome P450 1A2 = target: T5, Cytochrome P450 1A2 (Homo sapiens, UniProt P05177);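 note: PubChem cytochrome P450 panel assay, CYP1A2 panel member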
T5 sequence (P05177 whole entry): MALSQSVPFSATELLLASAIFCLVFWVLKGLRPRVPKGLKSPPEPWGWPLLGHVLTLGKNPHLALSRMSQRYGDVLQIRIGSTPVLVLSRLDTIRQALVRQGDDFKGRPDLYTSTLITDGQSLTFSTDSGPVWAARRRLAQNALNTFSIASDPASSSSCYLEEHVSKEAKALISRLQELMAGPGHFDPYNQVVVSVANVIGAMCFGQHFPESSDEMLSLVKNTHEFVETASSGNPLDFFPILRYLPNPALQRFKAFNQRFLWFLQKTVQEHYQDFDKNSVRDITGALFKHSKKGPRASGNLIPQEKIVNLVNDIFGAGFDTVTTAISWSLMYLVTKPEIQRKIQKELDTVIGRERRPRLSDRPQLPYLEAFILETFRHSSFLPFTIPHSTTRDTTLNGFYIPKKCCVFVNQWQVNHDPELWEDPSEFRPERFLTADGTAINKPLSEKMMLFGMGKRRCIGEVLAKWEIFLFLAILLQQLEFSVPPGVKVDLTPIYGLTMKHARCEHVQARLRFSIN

Cytochrome P450 3A4 = Cytochrome P450 3A4 (Homo sapiens, UniProt P08684);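 note: CYP3A4 tested as one member of a cytochrome P450 panel screen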
Cytochrome P450 2C9 [13] = target: T3, Cytochrome P450 2C9; remark: listed apart in the source
[14] = target: Luciferin 4-monooxygenase (Photinus pyralis, UniProt P08659); experiment: firefly luciferase enzyme inhibitors, dose response, biochemical, luminescence (AID 1891)
Luciferin 4-monooxygenase, sequence (P08659 whole entry): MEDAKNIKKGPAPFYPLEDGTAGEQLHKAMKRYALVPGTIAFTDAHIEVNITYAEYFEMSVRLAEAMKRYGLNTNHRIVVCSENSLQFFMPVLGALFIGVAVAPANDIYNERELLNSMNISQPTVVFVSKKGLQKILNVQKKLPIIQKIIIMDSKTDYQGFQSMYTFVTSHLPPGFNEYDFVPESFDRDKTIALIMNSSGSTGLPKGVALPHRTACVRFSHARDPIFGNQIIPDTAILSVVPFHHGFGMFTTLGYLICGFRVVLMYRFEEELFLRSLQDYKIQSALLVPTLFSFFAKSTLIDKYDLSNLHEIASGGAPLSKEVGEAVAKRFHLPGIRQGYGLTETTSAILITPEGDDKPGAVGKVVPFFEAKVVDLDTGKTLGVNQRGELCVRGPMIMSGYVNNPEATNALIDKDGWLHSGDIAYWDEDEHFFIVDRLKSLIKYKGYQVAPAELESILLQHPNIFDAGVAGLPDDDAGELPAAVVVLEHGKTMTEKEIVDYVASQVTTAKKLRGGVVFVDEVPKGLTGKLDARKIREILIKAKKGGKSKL

[15] = Luminescence Cell-Based Dose Confirmation HTS to Identify Inhibitors of Platelet Dense Granule Release. [Related pubchem assays: 1663 (Primary HTS), 1678 (Summary of Project)]; format: functional
Genome polyprotein = Genome polyprotein (dengue virus type 2, UniProt P29990); experiment: Dengue-2 NS5 methyltransferase inhibitors, primary screen, biochemical, confirmation dose response (AID 588689); format: functional
Fatty acid synthase [16] = target: T6, Fatty acid synthase (Homo sapiens, UniProt P49327); experiment: FAS thioesterase domain inhibitors, dose response, biochemical, endpoint fluorescence intensity, uHTS hits (AID 624327); format: functional;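 note: fluorescence from hydrolysis of an O-methyl fluorescein acyl ester substrate by the enzyme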
T6 sequence (P49327 whole entry, the tested form may be a part): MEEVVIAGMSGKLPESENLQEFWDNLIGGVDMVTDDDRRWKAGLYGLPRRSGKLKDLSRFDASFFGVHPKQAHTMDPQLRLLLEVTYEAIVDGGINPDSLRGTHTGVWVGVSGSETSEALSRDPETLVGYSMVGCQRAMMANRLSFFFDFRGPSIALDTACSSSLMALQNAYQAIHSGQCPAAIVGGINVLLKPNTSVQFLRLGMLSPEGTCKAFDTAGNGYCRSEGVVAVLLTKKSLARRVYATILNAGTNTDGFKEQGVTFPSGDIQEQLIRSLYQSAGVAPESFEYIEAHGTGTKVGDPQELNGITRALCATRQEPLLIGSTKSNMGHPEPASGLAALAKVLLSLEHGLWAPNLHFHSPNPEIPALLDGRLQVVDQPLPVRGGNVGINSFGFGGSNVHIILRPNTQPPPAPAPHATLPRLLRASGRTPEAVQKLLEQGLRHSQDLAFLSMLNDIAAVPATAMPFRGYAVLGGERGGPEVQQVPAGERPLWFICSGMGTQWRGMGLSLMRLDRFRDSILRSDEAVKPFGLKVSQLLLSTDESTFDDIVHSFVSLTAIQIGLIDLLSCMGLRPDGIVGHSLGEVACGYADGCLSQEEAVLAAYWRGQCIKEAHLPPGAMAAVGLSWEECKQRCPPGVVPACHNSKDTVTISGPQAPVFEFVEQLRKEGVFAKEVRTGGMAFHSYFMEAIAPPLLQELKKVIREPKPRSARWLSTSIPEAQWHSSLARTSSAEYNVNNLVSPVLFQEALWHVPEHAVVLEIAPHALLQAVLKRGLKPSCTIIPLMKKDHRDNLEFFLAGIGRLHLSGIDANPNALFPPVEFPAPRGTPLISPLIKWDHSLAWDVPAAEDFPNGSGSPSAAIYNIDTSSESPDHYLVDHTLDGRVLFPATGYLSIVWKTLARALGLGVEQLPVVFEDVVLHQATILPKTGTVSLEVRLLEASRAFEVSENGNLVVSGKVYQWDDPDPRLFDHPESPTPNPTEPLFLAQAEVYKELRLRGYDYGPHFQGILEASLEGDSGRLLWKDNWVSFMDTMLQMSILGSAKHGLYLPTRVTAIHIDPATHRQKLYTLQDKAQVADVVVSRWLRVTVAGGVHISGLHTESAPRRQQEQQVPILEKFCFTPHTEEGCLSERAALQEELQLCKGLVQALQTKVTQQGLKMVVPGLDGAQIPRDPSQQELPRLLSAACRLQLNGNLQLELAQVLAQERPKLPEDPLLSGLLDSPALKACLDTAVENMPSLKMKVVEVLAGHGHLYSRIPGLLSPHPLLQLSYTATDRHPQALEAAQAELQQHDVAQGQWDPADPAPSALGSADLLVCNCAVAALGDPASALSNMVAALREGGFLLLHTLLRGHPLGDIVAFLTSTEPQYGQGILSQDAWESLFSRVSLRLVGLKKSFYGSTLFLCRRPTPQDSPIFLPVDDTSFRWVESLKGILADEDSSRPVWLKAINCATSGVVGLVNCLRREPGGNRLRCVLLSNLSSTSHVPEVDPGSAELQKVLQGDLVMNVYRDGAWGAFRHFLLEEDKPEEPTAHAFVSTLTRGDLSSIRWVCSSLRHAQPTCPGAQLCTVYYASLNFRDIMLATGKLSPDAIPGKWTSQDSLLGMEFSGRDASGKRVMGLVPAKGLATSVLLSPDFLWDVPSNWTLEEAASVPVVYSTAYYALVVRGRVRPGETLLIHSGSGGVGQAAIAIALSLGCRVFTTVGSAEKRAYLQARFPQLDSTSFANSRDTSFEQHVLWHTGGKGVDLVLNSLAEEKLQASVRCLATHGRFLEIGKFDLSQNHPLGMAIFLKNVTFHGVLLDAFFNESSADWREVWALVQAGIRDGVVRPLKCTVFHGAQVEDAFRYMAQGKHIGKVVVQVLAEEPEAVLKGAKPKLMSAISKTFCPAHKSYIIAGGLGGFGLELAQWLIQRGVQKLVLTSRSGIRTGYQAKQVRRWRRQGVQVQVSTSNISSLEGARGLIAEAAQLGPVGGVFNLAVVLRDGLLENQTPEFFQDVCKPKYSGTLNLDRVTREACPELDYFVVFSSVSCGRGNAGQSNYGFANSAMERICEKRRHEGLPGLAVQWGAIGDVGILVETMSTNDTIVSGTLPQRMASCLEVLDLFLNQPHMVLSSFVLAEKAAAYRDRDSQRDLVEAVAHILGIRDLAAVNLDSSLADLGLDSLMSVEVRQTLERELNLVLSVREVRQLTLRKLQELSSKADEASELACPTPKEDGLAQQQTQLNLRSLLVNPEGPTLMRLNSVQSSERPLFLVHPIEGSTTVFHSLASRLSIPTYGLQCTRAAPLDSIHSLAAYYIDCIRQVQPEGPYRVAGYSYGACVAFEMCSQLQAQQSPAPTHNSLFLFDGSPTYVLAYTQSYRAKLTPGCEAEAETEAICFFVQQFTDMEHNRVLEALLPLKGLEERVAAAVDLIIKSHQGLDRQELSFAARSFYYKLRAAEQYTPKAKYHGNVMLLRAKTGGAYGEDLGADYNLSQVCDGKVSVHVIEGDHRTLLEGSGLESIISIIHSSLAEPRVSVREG

Fatty acid synthase [17] = target: T6, Fatty acid synthase; experiment: FAS thioesterase domain inhibitors, dose response, biochemical, kinetic fluorescence intensity (AID 624326); format: functional;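 note: rate of fluorescence rise from hydrolysis of a fluorogenic O-methyl fluorescein ester substrate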
[18] = target: Heat shock protein HSP 90-alpha (Homo sapiens, UniProt P07900); format: functional, organism-based
Cytochrome P450 2D6 = Cytochrome P450 2D6 (Homo sapiens, UniProt P10635);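 note: CYP2D6 member of a cytochrome P450 panel assay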
Large T antigen = Large T antigen (Simian virus 40, UniProt P03070); format: functional, Betapolyomavirus macacae;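 note: Confirmatory-stage PubChem screen for compounds that inhibit SV40 T antigen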

In the case of COc1ccc(CCNc2cc(N3CCN(C(=O)c4ccccc4OC)CC3)ccc2[N+](=O)[O-])cc1OC, the AC50 (INS1) is reported as 4.67 µM (active), the AC50 [1] is reported as 2.63 µM (active) and the AC50 [2] is reported as 2.98 µM (active). The AC50 [3] was 10.5 µM (active).

With Cn1cc(C2=C(c3ccc(Cl)cc3Cl)C(=O)NC2=O)c2ccccc21 [SB-216763] the EC50 [4] was 26 µM (active), the EC50 [5] was 21.5 µM (inconclusive) and the AC50 (Paired box protein Pax-8) was 4.61 µM (active). For the same molecule, the AC50 (Cytochrome P450 2C9 [6]) was 31.6 µM (inconclusive), the EC50 (HEK293 [7]) was > 59.6 µM (inactive) and the EC50 (HEK293 [8]) was > 59.6 µM (inactive).

With CC(=O)Nc1nc(C)c(-c2csc(Nc3ccc(O)cc3)n2)s1 the IC50 [9] was > 93.1 µM (not active), the AC50 [10] was 0.17 µM (active) and the AC50 (HEK293 [11]) was 3.85 µM (active). The AC50 [12] was 0.988 µM (active).

For Cc1cc2cc(CCNC(=O)c3ccc(S(=O)(=O)N4CCOCC4)cc3)c(O)nc2cc1C, the IC50 (Hexokinase HKDC1) was 11.1 µM (active).

With O=C(CCCn1c(=O)[nH]c2cc(Cl)ccc2c1=O)NCC1CCCO1 (stereo not drawn) the IC50 [9] was > 31 µM (not active).

For COc1cccc(OCC(=O)Nc2ccccc2C(N)=O)c1, the IC50 [9] was 55.2 µM (not active).

For Cc1ccc(NC(=O)c2sc3ncnc(O)c3c2C)c(C)c1, the AC50 (Cytochrome P450 2C19) was 14.1 µM (inconclusive), the AC50 (Cytochrome P450 1A2) was 14.1 µM (inconclusive) and the AC50 (Cytochrome P450 3A4) was 15.8 µM (inconclusive). For the same molecule, the AC50 (Cytochrome P450 2C9 [13]) was “inconclusive”.

For CCn1c(COc2ccccc2)nnc1SCC(=O)Nc1cc(OC)ccc1OC, the AC50 (Cytochrome P450 1A2) was 25.1 µM (inconclusive) and the AC50 (Cytochrome P450 2C9 [13]) was “inconclusive”.

For O=C1c2ccccc2C(=O)N1OS(=O)(=O)c1ccc(F)cc1, the EC50 [14] was > 112 µM (not active), the EC50 [15] was > 56.1 µM (not active) and the IC50 (Genome polyprotein) was > 100 µM (active). For the same molecule, the IC50 (Fatty acid synthase [16]) was 5.85 µM (active) and the IC50 (Fatty acid synthase [17]) was 3.91 µM (active).

In the case of CCN(CC)N=Nc1[nH]nc2nc(C)cc(C)c12, the AC50 [18] is reported as 2.42 µM (active), the AC50 (Cytochrome P450 2D6) is reported as 12.6 µM (inconclusive) and the AC50 (Cytochrome P450 2C9 [6]) is reported as 17.8 µM (inconclusive).

In the case of CCCCCOC(=O)C1=C(C)NC(=O)NC1c1ccc([N+](=O)[O-])cc1 (stereo not drawn), the IC50 (Fatty acid synthase [16]) is reported as 9.26 µM (active) and the IC50 (Fatty acid synthase [17]) is reported as 14.9 µM (active).

For CCN(CC)c1ccc(NC(=O)c2cnn(CC)c2)cc1, the IC50 (Large T antigen) was 6.73 µM (active), the AC50 [10] was 0.215 µM (active) and the AC50 (Cytochrome P450 2C9 [13]) was “inconclusive”.

For CC[C@]1(C(=O)OC)[C@H]2C(=O)N(Cc3ccccc3)C(=O)[C@H]2[C@H]2CN=C(SCc3ccc(C(=O)OC)cc3)N21, the EC50 (HEK293 [7]) was > 59.6 µM (inactive) and the EC50 (HEK293 [8]) was > 59.6 µM (inactive).
